Test results: PubChem BioAssay (NCI)
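48-hour exposure; five concentrations; linearly interpolated endpoints. GI50 = concentration required for 50% inhibition of growth. TGI is the concentration that stops growth completely.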

Experiments:
Assay in all cases: NCI anticancer screen, dose series, 48 h
NCI-H23 lung = tested on: NCI-H23 lung
HOP-92 NSCLC = tested on: HOP-92 NSCLC
MDA-MB-231 breast = tested on: MDA-MB-231 breast
KM12 colon = tested on: KM12 colon
BT-549 breast = tested on: BT-549 breast
MOLT-4 leukemia = tested on: MOLT-4 leukemia
EKVX NSCLC = tested on: EKVX NSCLC
IGROV1 ovarian = tested on: IGROV1 ovarian

## CCOC(=O)C(=Cc1ccccc1Br)C(=O)OCC
NCI-H23 lung
  TGI: 7.79 µM
HOP-92 NSCLC
  TGI: 7.57 µM
MDA-MB-231 breast
  TGI: 36.9 µM
KM12 colon
  TGI: 4.06 µM
BT-549 breast
  TGI: 7.07 µM
MOLT-4 leukemia
  TGI: 5.61 µM
EKVX NSCLC
  TGI: 17.3 µM
IGROV1 ovarian
  TGI: 4.62 µM

## CC1SC(c2cccs2)N(NC(=O)C(O)c2ccccc2)C1=O (stereo not drawn)
NCI-H23 lung
  GI50: > 100 µM
  TGI: > 100 µM
HOP-92 NSCLC
  GI50: > 100 µM
  TGI: > 100 µM
MDA-MB-231 breast
  GI50: > 100 µM
  TGI: > 100 µM
KM12 colon
  GI50: > 100 µM
  TGI: > 100 µM
BT-549 breast
  GI50: > 100 µM
  TGI: > 100 µM
MOLT-4 leukemia
  GI50: > 100 µM
  TGI: > 100 µM
EKVX NSCLC
  GI50: > 100 µM
  TGI: > 100 µM
IGROV1 ovarian
  GI50: > 100 µM
  TGI: > 100 µM

## NCCOc1ccccn1
NCI-H23 lung
  TGI: > 100 µM
HOP-92 NSCLC
  TGI: > 100 µM
MDA-MB-231 breast
  TGI: > 100 µM
KM12 colon
  TGI: > 100 µM
BT-549 breast
  TGI: > 100 µM
MOLT-4 leukemia
  TGI: > 100 µM
EKVX NSCLC
  TGI: > 100 µM
IGROV1 ovarian
  TGI: > 100 µM

## C=C1C(=O)O[C@H]2[C@H]1CC/C(Cn1cc(CCC)nn1)=C\CC[C@@]1(C)O[C@@H]21
NCI-H23 lung
  GI50: 13.6 µM
  TGI: 32 µM
HOP-92 NSCLC
  GI50: 2.95 µM
  TGI: 7.13 µM
MDA-MB-231 breast
  GI50: 4.22 µM
  TGI: 16.3 µM
KM12 colon
  GI50: 17.6 µM
  TGI: 34.1 µM
BT-549 breast
  GI50: 14.2 µM
  TGI: 28.6 µM
MOLT-4 leukemia
  GI50: 5.54 µM
  TGI: 27.6 µM
EKVX NSCLC
  GI50: 11.5 µM
  TGI: 23.6 µM
IGROV1 ovarian
  GI50: 4.63 µM
  TGI: 20.2 µM

## COc1ccc(-n2c(N)c(C(=O)NCCN3CCOCC3)c3nc4ccccc4nc32)cc1OC
NCI-H23 lung
  GI50: 38.3 µM
  TGI: > 100 µM
HOP-92 NSCLC
  GI50: 20.3 µM
  TGI: > 100 µM
MDA-MB-231 breast
  GI50: 32.4 µM
  TGI: > 100 µM
KM12 colon
  GI50: 8.26 µM
  TGI: > 100 µM
BT-549 breast
  GI50: 27.6 µM
  TGI: > 100 µM
MOLT-4 leukemia
  GI50: 2.87 µM
  TGI: 27.4 µM
EKVX NSCLC
  GI50: 40.2 µM
  TGI: > 100 µM
IGROV1 ovarian
  GI50: 4.92 µM
  TGI: 67.4 µM

## O=C1c2cccc3cccc(c23)C(=O)N1CCCCOc1ccc(-c2nc3ccc(N4CCOCC4)cc3[nH]2)cc1
NCI-H23 lung
  GI50: 6.7 µM
  TGI: 23.5 µM
HOP-92 NSCLC
  GI50: 2 µM
  TGI: 4.37 µM
MDA-MB-231 breast
  GI50: 3.27 µM
  TGI: 10.5 µM
KM12 colon
  GI50: 2.88 µM
BT-549 breast
  GI50: 1.49 µM
  TGI: 3.15 µM
MOLT-4 leukemia
  GI50: 2.95 µM
  TGI: > 100 µM
EKVX NSCLC
  GI50: 17.6 µM
  TGI: > 57.9 µM
IGROV1 ovarian
  GI50: 11.1 µM
  TGI: 66.9 µM

## CO/N=C1/c2cc(OC)ccc2-c2c(NOC)nc3ccccc3c21
NCI-H23 lung
  GI50: 28.6 µM
  TGI: 97.9 µM
HOP-92 NSCLC
  GI50: 16 µM
  TGI: 46.2 µM
MDA-MB-231 breast
  GI50: 12.6 µM
  TGI: 40.1 µM
KM12 colon
  GI50: 37.5 µM
  TGI: > 100 µM
BT-549 breast
  GI50: 21.9 µM
  TGI: 49.6 µM
MOLT-4 leukemia
  GI50: 47 µM
  TGI: > 100 µM
EKVX NSCLC
  GI50: 31.7 µM
  TGI: > 100 µM
IGROV1 ovarian
  GI50: 18 µM
  TGI: 44.2 µM

## CCN1C(=O)N(c2c(F)c(OC)cc(OC)c2F)Cc2cnc3[nH]c(CN4CCOCC4)cc3c21
NCI-H23 lung
  GI50: 7.03 µM
  TGI: > 100 µM
HOP-92 NSCLC
  GI50: 2.06 µM
  TGI: > 100 µM
MDA-MB-231 breast
  GI50: 3.06 µM
  TGI: 39.3 µM
KM12 colon
  GI50: 5.08 µM
  TGI: > 100 µM
BT-549 breast
  GI50: 0.0491 µM
  TGI: 15.7 µM
MOLT-4 leukemia
  GI50: 2.56 µM
  TGI: 59.9 µM
EKVX NSCLC
  GI50: 9.49 µM
  TGI: > 100 µM
IGROV1 ovarian
  GI50: 1.44 µM
  TGI: > 100 µM

## CC(C)(C)c1ccc(-c2nnc(SCc3ccc(Cl)cc3)n2-c2cccc(C(F)(F)F)c2)cc1
NCI-H23 lung
  TGI: > 100 µM
HOP-92 NSCLC
  TGI: > 100 µM
MDA-MB-231 breast
  TGI: > 100 µM
KM12 colon
  TGI: > 100 µM
BT-549 breast
  TGI: > 100 µM
MOLT-4 leukemia
  TGI: > 67.1 µM
EKVX NSCLC
  TGI: 81.9 µM
IGROV1 ovarian
  TGI: > 100 µM

## CC(=O)Nc1ccc(C(=O)N[C@@H]2C(=O)N3[C@@H]2SC(C)(C)[C@@H]3C(=O)O)cn1
NCI-H23 lung
  TGI: > 100 µM
HOP-92 NSCLC
  TGI: > 100 µM
MDA-MB-231 breast
  TGI: > 100 µM
KM12 colon
  TGI: > 100 µM
BT-549 breast
  TGI: > 100 µM
MOLT-4 leukemia
  TGI: > 100 µM
EKVX NSCLC
  TGI: > 100 µM
IGROV1 ovarian
  TGI: > 100 µM

## CC(O)CN(CCN(CC(C)O)CC(C)O)CC(C)O.O=[N+]([O-])O.[Cu+2] (stereo not drawn)
NCI-H23 lung
  GI50: > 100 µM
  TGI: > 100 µM
HOP-92 NSCLC
  GI50: > 100 µM
  TGI: > 100 µM
MDA-MB-231 breast
  GI50: > 100 µM
  TGI: > 100 µM
KM12 colon
  GI50: > 100 µM
  TGI: > 100 µM
BT-549 breast
  GI50: > 100 µM
  TGI: > 100 µM
MOLT-4 leukemia
  GI50: > 100 µM
  TGI: > 100 µM
EKVX NSCLC
  GI50: 67.3 µM
  TGI: > 100 µM
IGROV1 ovarian
  GI50: > 100 µM
  TGI: > 100 µM

## COc1ccc(C2CC(c3cc(OC)c(OC)c(OC)c3)=NN2)cc1 (stereo not drawn)
NCI-H23 lung
  GI50: 12.9 µM
  TGI: > 100 µM
HOP-92 NSCLC
  GI50: 20.1 µM
  TGI: > 100 µM
MDA-MB-231 breast
  GI50: 22.5 µM
  TGI: > 100 µM
KM12 colon
  GI50: 4.49 µM
  TGI: > 100 µM
BT-549 breast
  GI50: 8.02 µM
  TGI: > 100 µM
MOLT-4 leukemia
  GI50: 4.76 µM
  TGI: 25 µM
EKVX NSCLC
  GI50: 9.26 µM
  TGI: > 100 µM
IGROV1 ovarian
  GI50: 5.98 µM
  TGI: > 100 µM

## Cn1cccc1-c1cc(-c2ccc(Br)cc2)nc(N)c1C#N
NCI-H23 lung
  GI50: > 100 µM
  TGI: > 100 µM
HOP-92 NSCLC
  GI50: 47.8 µM
  TGI: > 100 µM
MDA-MB-231 breast
  GI50: 69.9 µM
  TGI: > 100 µM
KM12 colon
  GI50: > 100 µM
  TGI: > 100 µM
BT-549 breast
  GI50: 69.7 µM
  TGI: > 100 µM
MOLT-4 leukemia
  GI50: > 100 µM
  TGI: > 100 µM
EKVX NSCLC
  GI50: > 100 µM
  TGI: > 100 µM
IGROV1 ovarian
  GI50: 70 µM
  TGI: > 100 µM

## O=Nc1c(-c2cccc([N+](=O)[O-])c2)nc2ncccn12
NCI-H23 lung
  GI50: 15.1 µM
  TGI: 34.9 µM
HOP-92 NSCLC
  GI50: 3.19 µM
  TGI: 21.6 µM
MDA-MB-231 breast
  GI50: 16.4 µM
  TGI: 35.2 µM
KM12 colon
  GI50: 12.4 µM
  TGI: 26.8 µM
BT-549 breast
  GI50: 15.8 µM
  TGI: 32.1 µM
MOLT-4 leukemia
  GI50: 1.79 µM
  TGI: 5.31 µM
EKVX NSCLC
  GI50: 18.3 µM
  TGI: 43.3 µM
IGROV1 ovarian
  GI50: 10.3 µM
  TGI: 23.4 µM

## O=C1c2cccnc2-c2nc(-c3ccc([N+](=O)[O-])cc3)cc3c2c1nc1ccccc13
NCI-H23 lung
  GI50: 2.51 µM
  TGI: 10.1 µM
HOP-92 NSCLC
  GI50: 24 µM
  TGI: 83.6 µM
MDA-MB-231 breast
  GI50: 7.97 µM
  TGI: > 100 µM
KM12 colon
  GI50: 3.35 µM
  TGI: 19.4 µM
BT-549 breast
  GI50: 10.4 µM
  TGI: 28.6 µM
MOLT-4 leukemia
  GI50: 53.5 µM
  TGI: > 100 µM
EKVX NSCLC
  GI50: 10.7 µM
  TGI: 44.6 µM
IGROV1 ovarian
  GI50: 7.09 µM
  TGI: 26 µM

## NS(=O)(=O)c1ccc(-n2nc(-c3ccc(Cl)cc3)cc2C2=CC(=O)C=CC2=O)cc1
NCI-H23 lung
  GI50: 18 µM
  TGI: 42.1 µM
HOP-92 NSCLC
  GI50: 28 µM
  TGI: > 100 µM
MDA-MB-231 breast
  GI50: 13.7 µM
  TGI: 32 µM
KM12 colon
  GI50: 16 µM
  TGI: 36.1 µM
BT-549 breast
  GI50: 22.5 µM
  TGI: 70.8 µM
MOLT-4 leukemia
  GI50: > 100 µM
  TGI: > 100 µM
EKVX NSCLC
  GI50: 28.4 µM
  TGI: 91.1 µM
IGROV1 ovarian
  GI50: 39.6 µM
  TGI: > 100 µM
